The text below walks through data of PubChem BioAssay (NCI).

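Values below derive from 48-hour exposures of cells grown in 96-well plates, with endpoints linearly interpolated between the two concentrations bracketing the appropriate inhibition level. TGI marks complete inhibition of growth.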

The first test has as its system MALME-3M melanoma. Nature of the test: NCI-60 cell line screen, 48 h.
Turning to `CC1C[C@]2(C)C(=NCCN)Nc3ccccc3[C@@H]2N(C)c2ccccc21` (some centres undefined), the TGI amounted to 9.64 µM.
The same measure, in the same setting: for `O=[N+]([O-])/C(C(Cl)=C(Cl)Cl)=C(/Nc1ccccc1)SCc1ccccc1` the value was 30.1 µM.
The same measure, in the same setting: to `COc1cc(N(CCC#N)CCC#N)ccc1/C(N=Nc1ccccc1C)=N\NC(=O)c1ccc(C)cc1` belongs above 100 µM; to `O=C(Oc1ccccc1)N1c2ccccc2[C@@]23O[C@]24CCC[C@H]3C#C/C=C\C#C[C@H]14`, 22.1 µM.

In the next test the test system is RXF 393 renal. Description: NCI-60 cell line screen, 48 h.
Turning to `CC1C[C@]2(C)C(=NCCN)Nc3ccccc3[C@@H]2N(C)c2ccccc21` (some centres undefined), the TGI was determined as 22.1 µM.
Still for that read-out and setting: to `O=[N+]([O-])/C(C(Cl)=C(Cl)Cl)=C(/Nc1ccccc1)SCc1ccccc1` belongs 35.5 µM; to `COc1cc(N(CCC#N)CCC#N)ccc1/C(N=Nc1ccccc1C)=N\NC(=O)c1ccc(C)cc1`, above 100 µM; to `O=C(Oc1ccccc1)N1c2ccccc2[C@@]23O[C@]24CCC[C@H]3C#C/C=C\C#C[C@H]14`, 21.8 µM.

The next test deals with 786-0 renal. Description: NCI-60 cell line screen, 48 h.
`CC1C[C@]2(C)C(=NCCN)Nc3ccccc3[C@@H]2N(C)c2ccccc21` (some centres undefined) returned a TGI of 24.6 µM.
As for `O=[N+]([O-])/C(C(Cl)=C(Cl)Cl)=C(/Nc1ccccc1)SCc1ccccc1`, the TGI was 31.1 µM.
On the same count and under the same terms, to `COc1cc(N(CCC#N)CCC#N)ccc1/C(N=Nc1ccccc1C)=N\NC(=O)c1ccc(C)cc1` belongs above 100 µM.
Regarding `O=C(Oc1ccccc1)N1c2ccccc2[C@@]23O[C@]24CCC[C@H]3C#C/C=C\C#C[C@H]14`, the TGI came to 22.2 µM.

Another test has as its system HS 578T breast. Nature of the test: NCI-60 cell line screen, 48 h.
As for `CC1C[C@]2(C)C(=NCCN)Nc3ccccc3[C@@H]2N(C)c2ccccc21` (some centres undefined), the TGI was 38.2 µM.
Still for that read-out and setting: for `O=[N+]([O-])/C(C(Cl)=C(Cl)Cl)=C(/Nc1ccccc1)SCc1ccccc1` the value was 75.5 µM; for `COc1cc(N(CCC#N)CCC#N)ccc1/C(N=Nc1ccccc1C)=N\NC(=O)c1ccc(C)cc1`, above 100 µM; for `O=C(Oc1ccccc1)N1c2ccccc2[C@@]23O[C@]24CCC[C@H]3C#C/C=C\C#C[C@H]14`, 47.1 µM.

Another test has as its system UO-31 renal. Nature of the test: NCI-60 cell line screen, 48 h.
Consider `CC1C[C@]2(C)C(=NCCN)Nc3ccccc3[C@@H]2N(C)c2ccccc21` (some centres undefined), for which the TGI stood at 23.2 µM.
Still for that read-out and setting: for `O=[N+]([O-])/C(C(Cl)=C(Cl)Cl)=C(/Nc1ccccc1)SCc1ccccc1` the value was 39 µM.
Still for that read-out and setting: to `COc1cc(N(CCC#N)CCC#N)ccc1/C(N=Nc1ccccc1C)=N\NC(=O)c1ccc(C)cc1` belongs above 100 µM.
Same read-out and setting: for `O=C(Oc1ccccc1)N1c2ccccc2[C@@]23O[C@]24CCC[C@H]3C#C/C=C\C#C[C@H]14` the value was 26.5 µM.

For another test, the system named is SN12C renal. Description: NCI-60 cell line screen, 48 h.
Turning to `CC1C[C@]2(C)C(=NCCN)Nc3ccccc3[C@@H]2N(C)c2ccccc21` (some centres undefined), the TGI was 28.4 µM.
In turn, `O=[N+]([O-])/C(C(Cl)=C(Cl)Cl)=C(/Nc1ccccc1)SCc1ccccc1` returned a TGI of 44.2 µM.
Same read-out and setting: to `COc1cc(N(CCC#N)CCC#N)ccc1/C(N=Nc1ccccc1C)=N\NC(=O)c1ccc(C)cc1` belongs above 100 µM; to `O=C(Oc1ccccc1)N1c2ccccc2[C@@]23O[C@]24CCC[C@H]3C#C/C=C\C#C[C@H]14`, 26.6 µM.

The next test concerns SW-620 colon. Nature of the test: NCI-60 cell line screen, 48 h.
As to `CC1C[C@]2(C)C(=NCCN)Nc3ccccc3[C@@H]2N(C)c2ccccc21` (some centres undefined), the TGI is 35.9 µM.
Still for that read-out and setting: for `O=[N+]([O-])/C(C(Cl)=C(Cl)Cl)=C(/Nc1ccccc1)SCc1ccccc1` the value was 49 µM.
Still for that read-out and setting: for `COc1cc(N(CCC#N)CCC#N)ccc1/C(N=Nc1ccccc1C)=N\NC(=O)c1ccc(C)cc1` the value was above 100 µM; for `O=C(Oc1ccccc1)N1c2ccccc2[C@@]23O[C@]24CCC[C@H]3C#C/C=C\C#C[C@H]14`, 23.5 µM.

The subject of the next test is SNB-75 CNS. Nature of the test: NCI-60 cell line screen, 48 h.
As for `CC1C[C@]2(C)C(=NCCN)Nc3ccccc3[C@@H]2N(C)c2ccccc21` (some centres undefined), the TGI was 13.2 µM.
With `O=C(Oc1ccccc1)N1c2ccccc2[C@@]23O[C@]24CCC[C@H]3C#C/C=C\C#C[C@H]14`, the TGI was determined as 23.3 µM.

The test system of another test is SK-MEL-28 melanoma. Description: NCI-60 cell line screen, 48 h.
For the compound `CC1C[C@]2(C)C(=NCCN)Nc3ccccc3[C@@H]2N(C)c2ccccc21` (some centres undefined), the TGI worked out at 24.3 µM.
The compound `O=[N+]([O-])/C(C(Cl)=C(Cl)Cl)=C(/Nc1ccccc1)SCc1ccccc1` registered a TGI of 39.2 µM.
In the case of `COc1cc(N(CCC#N)CCC#N)ccc1/C(N=Nc1ccccc1C)=N\NC(=O)c1ccc(C)cc1`, the TGI is above 100 µM.
On the same count and under the same terms, for `O=C(Oc1ccccc1)N1c2ccccc2[C@@]23O[C@]24CCC[C@H]3C#C/C=C\C#C[C@H]14` the value was 27 µM.

The next test relates to SK-MEL-2 melanoma. Nature of the test: NCI-60 cell line screen, 48 h.
`CC1C[C@]2(C)C(=NCCN)Nc3ccccc3[C@@H]2N(C)c2ccccc21` (some centres undefined) yielded a TGI of 34.3 µM.
The same measure, in the same setting: to `O=[N+]([O-])/C(C(Cl)=C(Cl)Cl)=C(/Nc1ccccc1)SCc1ccccc1` belongs 44.7 µM; to `COc1cc(N(CCC#N)CCC#N)ccc1/C(N=Nc1ccccc1C)=N\NC(=O)c1ccc(C)cc1`, above 100 µM.
`O=C(Oc1ccccc1)N1c2ccccc2[C@@]23O[C@]24CCC[C@H]3C#C/C=C\C#C[C@H]14` came in with a TGI of 25.5 µM.

For another test, the system named is HT29 colon. Description: NCI-60 cell line screen, 48 h.
In the case of `CC1C[C@]2(C)C(=NCCN)Nc3ccccc3[C@@H]2N(C)c2ccccc21` (some centres undefined), the TGI is 13.2 µM.
Still for that read-out and setting: for `O=[N+]([O-])/C(C(Cl)=C(Cl)Cl)=C(/Nc1ccccc1)SCc1ccccc1` the value was 66.1 µM; for `COc1cc(N(CCC#N)CCC#N)ccc1/C(N=Nc1ccccc1C)=N\NC(=O)c1ccc(C)cc1`, above 100 µM; for `O=C(Oc1ccccc1)N1c2ccccc2[C@@]23O[C@]24CCC[C@H]3C#C/C=C\C#C[C@H]14`, 23.2 µM.

For a further test, the system named is DU-145 prostate. Description: NCI-60 cell line screen, 48 h.
As for `CC1C[C@]2(C)C(=NCCN)Nc3ccccc3[C@@H]2N(C)c2ccccc21` (some centres undefined), the TGI was determined as 28.7 µM.
Still for that read-out and setting: for `O=[N+]([O-])/C(C(Cl)=C(Cl)Cl)=C(/Nc1ccccc1)SCc1ccccc1` the value was 59.4 µM; for `COc1cc(N(CCC#N)CCC#N)ccc1/C(N=Nc1ccccc1C)=N\NC(=O)c1ccc(C)cc1`, above 100 µM.
Regarding `O=C(Oc1ccccc1)N1c2ccccc2[C@@]23O[C@]24CCC[C@H]3C#C/C=C\C#C[C@H]14`, the TGI was found to be 30.5 µM.

Another test concerns SF-539 CNS. Description: NCI-60 cell line screen, 48 h.
Take `CC1C[C@]2(C)C(=NCCN)Nc3ccccc3[C@@H]2N(C)c2ccccc21` (some centres undefined): the TGI stood at 25.9 µM.
On the same count and under the same terms, for `O=[N+]([O-])/C(C(Cl)=C(Cl)Cl)=C(/Nc1ccccc1)SCc1ccccc1` the value was 38.8 µM; for `O=C(Oc1ccccc1)N1c2ccccc2[C@@]23O[C@]24CCC[C@H]3C#C/C=C\C#C[C@H]14`, 45.8 µM.

The subject of another test is BT-549 breast. Nature of the test: NCI-60 cell line screen, 48 h.
Take `COc1cc(N(CCC#N)CCC#N)ccc1/C(N=Nc1ccccc1C)=N\NC(=O)c1ccc(C)cc1`: the TGI is above 100 µM.
The same measure, in the same setting: for `O=C(Oc1ccccc1)N1c2ccccc2[C@@]23O[C@]24CCC[C@H]3C#C/C=C\C#C[C@H]14` the value was 25.5 µM.

For the next test, the system named is U251 CNS. Nature of the test: NCI-60 cell line screen, 48 h.
`O=[N+]([O-])/C(C(Cl)=C(Cl)Cl)=C(/Nc1ccccc1)SCc1ccccc1` returned a TGI of 34.6 µM.
Compound `COc1cc(N(CCC#N)CCC#N)ccc1/C(N=Nc1ccccc1C)=N\NC(=O)c1ccc(C)cc1` had a TGI above 100 µM.
The same measure, in the same setting: for `O=C(Oc1ccccc1)N1c2ccccc2[C@@]23O[C@]24CCC[C@H]3C#C/C=C\C#C[C@H]14` the value was 30.3 µM.
